In publication PMC10033154 (Journal of Molecular Structure, 2023):
pIC50: −log10 of the molar value.

Target: SARS-CoV-2 3CL protease (Severe acute respiratory syndrome coronavirus 2, UniProt P0DTD1)
Experiment: FRET enzyme activity inhibition assay of SARS-CoV-2 3CLpro
Format: biochemical

**Q.** `COc1ccc(C=C[N+](=O)[O-])cc1OC` [compound f, 3,4-dimethoxyl-β-nitrostyrene] was tested. Which pIC50 did it give?
**A.** 5.30
